Reference: PubChem BioAssay AID1259407 (Chemical Carcinogenesis Research Information System (CCRIS), 2018)
Active and inactive are the calls of the source. How the calls were made is not given here.

System: CCRIS mutagenicity, Ames/micronucleus/aberration tests
Test: CCRIS mutagenicity studies
[1] = Test System: AMES SALMONELLA TYPHIMURIUM, Strain/Indicator: TA98, Metabolic Activation: NONE, Method: PREINCUBATION
[2] = Test System: AMES SALMONELLA TYPHIMURIUM, Strain/Indicator: TA100, Metabolic Activation: NONE, Method: PREINCUBATION
[3] = Test System: AMES SALMONELLA TYPHIMURIUM, Strain/Indicator: TA100, Metabolic Activation: NONE, Method: STANDARD PLATE

Measured: mutagenic call

O=c1c(O)c(-c2ccc(O)c(O)c2)oc2cc(O)cc(O)c12
active: Test System: AMES SALMONELLA TYPHIMURIUM, Strain/Indicator: TA97, Metabolic Activation: NONE, Method: STANDARD PLATE active; positive | Test System: AMES SALMONELLA TYPHIMURIUM, Strain/Indicator: TA97A, Metabolic Activation: NONE, Method: STANDARD PLATE active; positive | Test System: AMES SALMONELLA TYPHIMURIUM, Strain/Indicator: TA97A, Metabolic Activation: RAT, LIVER, S9, AROCLOR 1254, Method: STANDARD PLATE active; positive | Test System: AMES SALMONELLA TYPHIMURIUM, Strain/Indicator: TA98, Metabolic Activation: HAMSTER, LIVER, S9, AROCLOR 1254 (30%), Method: PREINCUBATION active; positive | Test System: AMES SALMONELLA TYPHIMURIUM, Strain/Indicator: TA98, Metabolic Activation: NONE, Method: FLUCTUATION (MICROTITER) active; positive | [1] active; positive | Test System: AMES SALMONELLA TYPHIMURIUM, Strain/Indicator: TA98, Metabolic Activation: NONE, Method: STANDARD PLATE active; positive | Test System: AMES SALMONELLA TYPHIMURIUM, Strain/Indicator: TA98, Metabolic Activation: RAT, LIVER, CYTOSOL, Method: PREINCUBATION active; positive | Test System: AMES SALMONELLA TYPHIMURIUM, Strain/Indicator: TA98, Metabolic Activation: RAT, LIVER, S9, 5,6-BENZOFLAVONE AND/OR SODIUM PHENOBARBITAL, Method: PREINCUBATION active; positive | Test System: AMES SALMONELLA TYPHIMURIUM, Strain/Indicator: TA98, Metabolic Activation: RAT, LIVER, S9, AROCLOR 1254 (30%), Method: PREINCUBATION active; positive | Test System: AMES SALMONELLA TYPHIMURIUM, Strain/Indicator: TA98, Metabolic Activation: RAT, LIVER, S-9, PHENOBARBITAL, Method: STANDARD PLATE active; positive | Test System: AMES SALMONELLA TYPHIMURIUM, Strain/Indicator: TA98, Metabolic Activation: S9, GLUCOSE-6-PHOSPHATE AND NADP, Method: STANDARD PLATE active; positive | Test System: AMES SALMONELLA TYPHIMURIUM, Strain/Indicator: TA98, Metabolic Activation: S9, Method: STANDARD PLATE active; positive | Test System: AMES SALMONELLA TYPHIMURIUM, Strain/Indicator: TA98, Metabolic Activation: S-100, GLUCOSE-6-PHOSPHATE AND NADP, Method: STANDARD PLATE active; positive | Test System: AMES SALMONELLA TYPHIMURIUM, Strain/Indicator: TA98, Metabolic Activation: S-100, Method: STANDARD PLATE active; positive | Test System: AMES SALMONELLA TYPHIMURIUM, Strain/Indicator: TA100, Metabolic Activation: HAMSTER, LIVER, S9, AROCLOR 1254 (30%), Method: PREINCUBATION active; positive | [2] active; positive | [3] active; positive | Test System: AMES SALMONELLA TYPHIMURIUM, Strain/Indicator: TA100, Metabolic Activation: RAT, LIVER, S9, AROCLOR 1254 (30%), Method: PREINCUBATION active; positive | Test System: AMES SALMONELLA TYPHIMURIUM, Strain/Indicator: TA100, Metabolic Activation: RAT, LIVER, S-9, PHENOBARBITAL, Method: STANDARD PLATE active; positive | Test System: AMES SALMONELLA TYPHIMURIUM, Strain/Indicator: TA102, Metabolic Activation: RAT, LIVER, S9, AROCLOR 1254, Method: STANDARD PLATE active; positive | Test System: AMES SALMONELLA TYPHIMURIUM, Strain/Indicator: TA1537, Metabolic Activation: NONE, Method: FLUCTUATION (MICROTITER) active; positive | Test System: AMES SALMONELLA TYPHIMURIUM, Strain/Indicator: TA1538, Metabolic Activation: NONE, Method: STANDARD PLATE active; positive | Test System: AMES SALMONELLA TYPHIMURIUM, Strain/Indicator: TA7002, Metabolic Activation: NONE, Method: FLUCTUATION (MICROTITER) active; positive | Test System: AMES SALMONELLA TYPHIMURIUM, Strain/Indicator: TA7004, Metabolic Activation: NONE, Method: FLUCTUATION (MICROTITER) active; positive | Test System: AMES SALMONELLA TYPHIMURIUM, Strain/Indicator: TA7005, Metabolic Activation: NONE, Method: FLUCTUATION (MICROTITER) active; positive | Test System: Ames Salmonella typhimurium, Strain/Indicator: TA98, Metabolic Activation: None, Method: Standard plate active; positive | Test System: Ames Salmonella typhimurium, Strain/Indicator: TA98, Metabolic Activation: Rat, Liver, S9, Aroclor 1254, Method: Standard plate active; positive | Test System: Ames Salmonella typhimurium, Strain/Indicator: TA100, Metabolic Activation: None, Method: Standard plate active; positive | Test System: Ames Salmonella typhimurium, Strain/Indicator: TA100, Metabolic Activation: Rat, Liver, S9, Aroclor 1254, Method: Standard plate active; positive | Test System: Ames Salmonella typhimurium, Strain/Indicator: TA102, Metabolic Activation: Fe ++ (1 uM) with NADPH generating system, Method: Preincubation active; positive | Test System: Ames Salmonella typhimurium, Strain/Indicator: TA102, Metabolic Activation: None, Method: Preincubation active; positive | Test System: Ames Salmonella typhimurium, Strain/Indicator: TA102, Metabolic Activation: Rat, Liver, S9, Aroclor 1254, Method: Preincubation active; positive | Test System: Ames Salmonella typhimurium, Strain/Indicator: TA102, Metabolic Activation: Rat, Liver, S-9, Aroclor 1254 in 0.154 M KCl, Method: Preincubation active; positive | Test System: E. coli, Strain/Indicator: WP2 uvrA, Metabolic Activation: Fe ++ (1 uM) with NADPH generating system, Method: Preincubation active; positive | Test System: E. coli, Strain/Indicator: WP2 uvrA, Metabolic Activation: None, Method: Preincubation active; positive | Test System: E. coli, Strain/Indicator: WP2 uvrA, Metabolic Activation: Rat, Liver, S9, Aroclor 1254, Method: Preincubation active; positive
inactive: End Point: IN VIVO MICRONUCLEUS, Test System: BONE MARROW POLYCHROMATIC ERYTHROCYTES, Species: MOUSE, Strain/Sex: DDY/MALE, Route: IP inactive; negative | End Point: In vivo micronucleus, Test System: Bone marrow polychromatic erythrocytes, Species: Rat, Strain/Sex: Wistar/Male, Route: Oral (gavage) inactive; negative | Test System: AMES SALMONELLA TYPHIMURIUM, Strain/Indicator: TA1535, Metabolic Activation: NONE, Method: STANDARD PLATE inactive; negative | Test System: AMES SALMONELLA TYPHIMURIUM, Strain/Indicator: TA7001, Metabolic Activation: NONE, Method: FLUCTUATION (MICROTITER) inactive; negative | Test System: AMES SALMONELLA TYPHIMURIUM, Strain/Indicator: TA7003, Metabolic Activation: NONE, Method: FLUCTUATION (MICROTITER) inactive; negative | Test System: AMES SALMONELLA TYPHIMURIUM, Strain/Indicator: TA7006, Metabolic Activation: NONE, Method: FLUCTUATION (MICROTITER) inactive; negative | Test System: UDS RAT GASTRIC MUCOSAL CELLS, Strain/Indicator: THY INCORP, Metabolic Activation: NONE, Method: LIQUID SCINTILLATION COUNTING inactive; negative | Test System: UDS Rat hepatocytes, Strain/Indicator: Wistar (Male and female), Method: Autoradiography inactive; negative

N[C@@H](CCS/C(Cl)=C/Cl)C(=O)O
inactive: Test System: AMES SALMONELLA TYPHIMURIUM, Strain/Indicator: TA2638, Metabolic Activation: NONE, Method: PREINCUBATION inactive; negative
active: Test System: AMES SALMONELLA TYPHIMURIUM, Strain/Indicator: TA2638, Metabolic Activation: RAT, KIDNEY, CYTOSOL, Method: PREINCUBATION active; positive

C[n+]1ccc(-c2ccccc2)cc1
inactive: [2] inactive; negative | Test System: AMES SALMONELLA TYPHIMURIUM, Strain/Indicator: TA102, Metabolic Activation: NONE, Method: PREINCUBATION inactive; negative

CC(=O)Nc1cc2c(cc1Cl)-c1ccccc1C2
active: Test System: AMES SALMONELLA TYPHIMURIUM, Strain/Indicator: TA98, Metabolic Activation: RAT, LIVER, S-9, AROCLOR 1254, Method: STANDARD PLATE active; positive

O=C(O)C(Cl)=C(C(Cl)Cl)C(Cl)Cl
active: [1] active; positive | [2] active; positive | [3] active; positive | Test System: AMES SALMONELLA TYPHIMURIUM, Strain/Indicator: TA104, Metabolic Activation: NONE, Method: PREINCUBATION active; positive
